Results taken from patent US6861554B2, “Creatine salt having enhanced nutritional and therapeutic efficacy and compositions containing same” (Biosalts s.r.l., priority 2001, dated 2005).

How the values were obtained:
muscle cells = test: increase in glucose uptake by the muscle cells with respect to insulin; assay type: cell-based
[1] = stability and hygroscopicity of the salt; assay type: physicochemical

Compound	Glucose uptake (percentage of increase in the glucose uptake by the muscle cells with respect to insulin) (muscle cells; 2.5 grams of substance)	hygroscopicity [1]	stability [1]	Glucose uptake (percentage of increase in the glucose uptake by the muscle cells with respect to insulin) (muscle cells; 5.0 grams of substance)
CN(CC(=O)O)C(=N)N.O [Creatine monohydrate, creatine monohydrate]	1-2%			
NCCS(=O)(=O)O [Taurine, 2-aminoethanesulphonic acid]	15-18%			
Creatine Taurinate		non hygroscopic	stable	25-28%
